How the values were obtained:
[1] = co-administration with ketoconazole; inhibition of the metabolic elimination of cisapride; cited from earlier work
[2] = molecular target: T1, 5-HT3 receptor subtypes derived from N1E-115 cells (Mus musculus, UniProt P23979); test: Receptor binding, 5-HT3 receptor (radioligand binding, Cerep); conditions: ratio of IC50 at 5-HT3 to IC50 at 5-HT4
T1 construct: 5-HT3 receptor subtypes derived from N1E-115 cells; host or cells: N1E-115 cells
T1 sequence (P23979 24-489): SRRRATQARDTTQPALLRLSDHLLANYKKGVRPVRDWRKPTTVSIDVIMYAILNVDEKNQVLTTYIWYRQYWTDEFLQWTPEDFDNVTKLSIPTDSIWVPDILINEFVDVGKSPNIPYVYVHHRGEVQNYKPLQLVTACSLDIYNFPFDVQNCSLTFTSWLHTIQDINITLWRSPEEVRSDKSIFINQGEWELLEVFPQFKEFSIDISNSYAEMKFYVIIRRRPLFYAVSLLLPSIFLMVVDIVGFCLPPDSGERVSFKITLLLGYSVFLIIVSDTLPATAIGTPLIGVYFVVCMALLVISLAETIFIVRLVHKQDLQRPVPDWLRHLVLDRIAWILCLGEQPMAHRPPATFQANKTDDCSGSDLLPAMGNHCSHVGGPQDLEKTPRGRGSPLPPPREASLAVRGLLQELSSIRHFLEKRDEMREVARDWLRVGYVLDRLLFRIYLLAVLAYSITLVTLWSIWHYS
Description: Receptor Binding 5-HT3 Receptor
Following incubation with the appropriate ligands, the preparations were rapidly filtered under vacuum through GF/B glass fiber filters and washed with ice-old buffer using a Brandel or Packard cell harvester.
Specific radioligand binding to the receptor was defined as the difference between total binding and nonspecific binding determined in the presence of an excess of unlabeled ligand. Results were expressed as a percent inhibition of specific binding obtained in the presence of the compounds.

Row | 5-HT3/5-HT4 Ratio [2] | SMILES | increase of the steady-state plasma levels [1] [fold]
1 |  | COc1cc(N)c(Cl)cc1C(=O)N[C@H]1CCN(CCCOc2ccc(F)cc2)C[C@H]1OC (racemic) [(±) Cisapride, cis-4-amino-5-chloro-N-[1-[3-(4-fluorophenoxy)propyl]-3-methoxy-4-piperidinyl]-2-methoxybenzamide] | 8
2 | 0.012 | COc1cc(N)c(Cl)cc1C(=O)NC1CCNCC1OC (racemic) [(±) Norcisapride, 4-amino-5-chloro-N-(3-methoxy-4-piperidinyl)-2-methoxybenzamide] | 
3 | 0.014 | COc1cc(N)c(Cl)cc1C(=O)NC1CCNCC1OC (single isomer, unassigned; (+)) [(+) Norcisapride] | 
4 | 0.023 | COc1cc(N)c(Cl)cc1C(=O)NC1CCNCC1OC (single isomer, unassigned; (-)) [(−) Norcisapride] | 
